Laboratory results from patent US20200405604A1, “COSMETIC COMPOSITION COMPRISING 4-(3-ETHOXY-4-HYDROXYPHENYL)-2-BUTANONE” (L'OREAL, priority 2011, published 2020).

Assay: Solubility test in test solvents
Type: physicochemical
Protocol: The test solvent was poured into a beaker, an amount of the compound 4-(3-ethoxy-4-hydroxyphenyl)-2-butanone was added with magnetic stirring and the mixture was left to stand for between 1 hour and 24 hours. The mixture was then heated to 50° C. and then cooled to room temperature (25° C.) over 24 hours. The system was then observed to see if the amount of compound introduced recrystallized or remained dissolved.
The amount of compound that can be dissolved in the test solvent was determined in this manner. The maximum value corresponds to the amount at and above which the ester compound stops dissolving in the evaluated solvent.

Solubility (in words) (in water or glycerol): very sparingly soluble | Dissolution (in words) (with ethanol, 1,2-propylene glycol, 1,3-propanediol, PEG-8 and propylene carbonate): very satisfactorily dissolved | Dissolution (in words) (with glycerol): very sparingly dissolved
SMILES: CCOc1cc(CCC(C)=O)ccc1O [4-(3-ethoxy-4-hydroxyphenyl)-2-butanone]
